Test results as given in patent US9770026B2, “Substituted pyrimidine compound and uses thereof” (Shenyang Sinochem Agrochemicals R&D Co., Ltd., priority 2012, dated 2017).

How the values were obtained:
wheat powdery mildew = assay: protectant activity in vivo against wheat powdery mildew; conditions: for control effect against wheat powdery mildew (%): protectant activity
[1] = system: Green peach aphids (Myzus Persicae Sulzer); assay: bioactivity test against green peach aphid, airbrush foliar spray; type: in vivo; conditions: for Insecticidal activity against peach aphid (%): contrastive test
Protocol: (§1) Compounds were dissolved in mixed solvent (acetone:methanol=1:1), and diluted to required concentration with water containing 0.1% of tween 80.
(§2) Diamond back moth, armyworm, peach aphid and carmine spider mite were used as targets and the method of spraying by airbrush was used for determination of insecticidal biassays.
Method: Filter papers were put in culture dishes (Diameter=6 cm), and water was dripped on filter papers for preserving moisture. Green peach aphids (Myzus Persicae Sulzer) were maintained on cabbage. Leaves (Diameter=3 cm) of approximately 15-30 aphids were put in the culture dishes. Bioactivity tests were used the method of Airbrush Foliar Spray, pressure=10 psi (0.7 kg/cm2), spray volume=0.5 mL. The studies were conducted at […] 25±1 C in incubator cabinets with 60±5% RH. Survey the survival aphids after 48 hrs and calculate the death rates.

corn rust = assay: protectant activity in vivo against corn rust; conditions: for control effect against corn rust (%): protectant activity
carmine spider mite = assay: bioactivity test against carmine spider mite, airbrush spray; type: in vivo; conditions: for control against carmine spider mite: mortality after 72 hrs
Protocol: as §1, §2
The method: Broadbean shoots with two true leaves in pot were taken, the healthy adults of carmine spider mite were inoculated to the leaves. The adults were counted and then sprayed with airbrush at the pressure of 0.7 kg/cm^2 and at dose of 0.5 ml. 3 replicates were set for each treatment. And then they were maintained in standard observation room. Scores were conducted and mortalities were calculated after 72 hrs.

armyworm = assay: bioactivity test against armyworm, airbrush spray; type: in vivo
Protocol: as §1, §2
The method of spraying by airbrush: The corn leaves were made into plates of 2 cm diameter by use of punch. A test solution (0.5 ml) was sprayed by airbrush at the pressure of 0.7 kg/cm^2 to both sides of every plate. 10 Second instar larvae were put into the petri-dishes after the leaf disc air-dried and 3 replicates were set for each treatment. Then the insects were maintained in observation room (25 °C, 60˜70% R.H.). Scores were conducted and mortalities were calculated after 72 h.

cucumber downy mildew = assay: protectant activity in vivo against cucumber downy mildew; conditions: for pest or weed control at 100 ppm: read-out: protectant activity against cucumber downy mildew in vivo, 100 ppm
[2] = 10 ppm, death rate after 48 hrs
[3] = 100 ppm, death rate after 48 hrs
[4] = 600 ppm, death rate after 48 hrs

CC(F)c1ncnc(NCCc2ccc(Oc3ncc(C(F)(F)F)cc3Cl)cc2)c1Cl (stereo not shown) [CK2, reference compound]
100%: control effect against wheat powdery mildew (%) (wheat powdery mildew; 100 mg/L) | control effect against wheat powdery mildew (%) (wheat powdery mildew; 400 mg/L) | Insecticidal activity against peach aphid (%) ([1]; 100 mg/L) | Insecticidal activity against peach aphid (%) ([1]; 600 mg/L) | control effect against corn rust (%) (corn rust; 25 mg/L) | control effect against corn rust (%) (corn rust; 100 mg/L) | control effect against corn rust (%) (corn rust; 400 mg/L) | Insecticidal activity against carmine spider mite (% ) (carmine spider mite; 100 mg/L, contrastive test) | Insecticidal activity against carmine spider mite (% ) (carmine spider mite; 600 mg/L, contrastive test)
37%: Insecticidal activity against peach aphid (%) ([1]; 5 mg/L)
95%: Insecticidal activity against peach aphid (%) ([1]; 10 mg/L)
85%: control effect against corn rust (%) (corn rust; 6.25 mg/L)
0%: control effect against wheat powdery mildew (%) (wheat powdery mildew; 6.25 mg/L) | Insecticidal activity against peach aphid (%) ([1]; 1.25 mg/L)
23%: Insecticidal activity against peach aphid (%) ([1]; 2.5 mg/L)
32%: Insecticidal activity against carmine spider mite (% ) (carmine spider mite; 10 mg/L, contrastive test)
80%: control effect against wheat powdery mildew (%) (wheat powdery mildew; 25 mg/L)

CCc1c(Cl)c(NCCc2ccc(Oc3ccc(C(F)(F)F)cc3)cc2)nc[n+]1CC(=O)c1ccccc1.[Br-] [CK5, reference compound]
100%: Insecticidal activity against armyworm (%) (armyworm; 600 mg/L)
30%: control effect against corn rust (%) (corn rust; 6.25 mg/L)
40%: control effect against corn rust (%) (corn rust; 25 mg/L)
56%: Insecticidal activity against armyworm (%) (armyworm; 100 mg/L)
98%: control effect against corn rust (%) (corn rust; 100 mg/L)
0%: Insecticidal activity against armyworm (%) (armyworm; 10 mg/L)
95%: control effect against corn rust (%) (corn rust; 400 mg/L)

CCc1ncnc(NCc2ccc(Oc3ncc(Cl)cc3Cl)cc2)c1Cl [CK64, reference compound]
0%: pest or weed control at 600 µg/mL (armyworm; 72 h, 600 mg/L, read-out: Insecticidal activity against armyworm (%))
56%: pest or weed control at 600 µg/mL (carmine spider mite; Tetranychus cinnabarinus, 72 h, 600 mg/L, contrastive test, read-out: Insecticidal activity against carmine spider mite (% ))

CCOC(=O)c1ccc(Oc2ccc(CCNc3ncnc(CC)c3Cl)cc2)nc1 [Compound I-267]
100%: protectant activity against wheat powdery mildew in vivo (wheat powdery mildew; 100 ppm) | protectant activity against wheat powdery mildew in vivo (wheat powdery mildew; 400 ppm) | control (test results against green peach aphid) [1, 2] | control (test results against green peach aphid) [1, 3] | control (test results against green peach aphid) [1, 4] | protectant activity against corn rust in vivo (corn rust; 400 ppm) | control against carmine spider mite (carmine spider mite; 600 ppm)

Cc1ncnc(NCCc2ccc(Oc3ncccc3C(F)(F)F)cc2)c1Cl [Compound I-929]
100%: protectant activity against wheat powdery mildew in vivo (wheat powdery mildew; 400 ppm) | control (test results against green peach aphid) [1, 4] | protectant activity against corn rust in vivo (corn rust; 400 ppm) | control against carmine spider mite (carmine spider mite; 600 ppm)

CCc1ncnc(NCCc2ccc(Oc3ncccc3C(F)(F)F)cc2)c1Cl [Compound I-987]
80%: Insecticidal activity against carmine spider mite (% ) (carmine spider mite; 10 mg/L, contrastive test)
100%: protectant activity against wheat powdery mildew in vivo (wheat powdery mildew; 100 ppm) | protectant activity against wheat powdery mildew in vivo (wheat powdery mildew; 400 ppm) | control (test results against green peach aphid) [1, 2] | control (test results against green peach aphid) [1, 3] | control (test results against green peach aphid) [1, 4] | protectant activity against corn rust in vivo (corn rust; 100 ppm) | protectant activity against corn rust in vivo (corn rust; 400 ppm) | Insecticidal activity against carmine spider mite (% ) (carmine spider mite; 100 mg/L, contrastive test) | Insecticidal activity against carmine spider mite (% ) (carmine spider mite; 600 mg/L, contrastive test) | control against carmine spider mite (carmine spider mite; 100 ppm) | control against carmine spider mite (carmine spider mite; 600 ppm) | protectant activity against cucumber downy mildew in vivo (cucumber downy mildew; 100 ppm) | protectant activity against cucumber downy mildew in vivo (cucumber downy mildew; 400 ppm)

CCc1ncnc(NCCc2ccc(Oc3ncc(C(F)(F)F)cc3Cl)c(Cl)c2)c1Cl [Compound I-1472]
100%: protectant activity against wheat powdery mildew in vivo (wheat powdery mildew; 100 ppm) | protectant activity against wheat powdery mildew in vivo (wheat powdery mildew; 400 ppm) | control (test results against green peach aphid) [1, 2] | control (test results against green peach aphid) [1, 3] | control (test results against green peach aphid) [1, 4] | protectant activity against corn rust in vivo (corn rust; 400 ppm) | control (test results against armyworm) (armyworm; 600 ppm, mortality after 72 h) | control against carmine spider mite (carmine spider mite; 600 ppm)

Cc1ncnc(NCCc2ccc(Oc3ccc(C(F)(F)F)cn3)cc2)c1Br [Compound I-1762]
100%: protectant activity against wheat powdery mildew in vivo (wheat powdery mildew; 400 ppm) | control (test results against green peach aphid) ([1]; 5 ppm, death rate after 48 hrs) | control (test results against green peach aphid) [1, 2] | control (test results against green peach aphid) [1, 3] | control (test results against green peach aphid) [1, 4] | protectant activity against corn rust in vivo (corn rust; 400 ppm) | control against carmine spider mite (carmine spider mite; 100 ppm) | control against carmine spider mite (carmine spider mite; 600 ppm) | protectant activity against cucumber downy mildew in vivo (cucumber downy mildew; 400 ppm)

FC(F)(F)c1ccc(Oc2ccc(CCNc3ncnc(C(F)(F)F)c3Cl)cc2)nc1 [Compound I-2748]
80 to 99%: pest or weed control at 400 ppm (wheat powdery mildew; Triticum aestivum, 168 h, read-out: protectant activity against wheat powdery mildew in vivo, 400 ppm) | pest or weed control at 400 ppm (corn rust; Zea mays, 168 h, read-out: protectant activity against corn rust in vivo, 400 ppm) | pest or weed control at 600 ppm (armyworm; 72 h, 600 ppm, mortality after 72 h)
100%: pest or weed control at 600 ppm ([1]; Myzus persicae, foliar, 48 h, 600 ppm, death rate after 48 hrs) | pest or weed control at 50 ppm (cucumber downy mildew; Cucumis sativus, 168 h, read-out: protectant activity against cucumber downy mildew in vivo, 50 ppm) | pest or weed control at 100 ppm (cucumber downy mildew; Cucumis sativus, 168 h) | pest or weed control at 400 ppm (cucumber downy mildew; Cucumis sativus, 168 h, read-out: protectant activity against cucumber downy mildew in vivo, 400 ppm)

Cc1ncnc(NCCc2ccc(Oc3ccc(C(F)(F)F)cn3)cc2)c1Cl.Cl [Compound I-6730]
80 to 99%: pest or weed control at 6.25 ppm (wheat powdery mildew; Triticum aestivum, 168 h, read-out: protectant activity against wheat powdery mildew in vivo, 6.25 ppm)
100%: protectant activity against wheat powdery mildew in vivo (wheat powdery mildew; 25 ppm) | protectant activity against wheat powdery mildew in vivo (wheat powdery mildew; 100 ppm) | protectant activity against wheat powdery mildew in vivo (wheat powdery mildew; 400 ppm) | control (test results against green peach aphid) [1, 4] | protectant activity against corn rust in vivo (corn rust; 400 ppm) | control against carmine spider mite (carmine spider mite; 600 ppm) | protectant activity against cucumber downy mildew in vivo (cucumber downy mildew; 25 ppm) | protectant activity against cucumber downy mildew in vivo (cucumber downy mildew; 50 ppm) | protectant activity against cucumber downy mildew in vivo (cucumber downy mildew; 400 ppm) | pest or weed control at 100 ppm (cucumber downy mildew; Cucumis sativus, 168 h)

Cc1ncnc(NCCc2ccc(Oc3ccc(Cl)cc3Cl)cc2)c1Cl [II-21]
100%: control (test results against green peach aphid) [1, 4] | protectant activity against corn rust in vivo (corn rust; 100 ppm) | protectant activity against corn rust in vivo (corn rust; 400 ppm) | control (test results against armyworm) (armyworm; 600 ppm, mortality after 72 h) | control against carmine spider mite (carmine spider mite; 100 ppm) | control against carmine spider mite (carmine spider mite; 600 ppm) | protectant activity against cucumber downy mildew in vivo (cucumber downy mildew; 50 ppm) | protectant activity against cucumber downy mildew in vivo (cucumber downy mildew; 100 ppm) | protectant activity against cucumber downy mildew in vivo (cucumber downy mildew; 400 ppm)

CCc1ncnc(NCCc2ccc(Oc3ccc(C(F)(F)F)cc3Cl)cc2)c1Cl [II-432]
80%: control effect against wheat powdery mildew (%) (wheat powdery mildew; 1.6 mg/L)
76%: Insecticidal activity against carmine spider mite (% ) (carmine spider mite; 10 mg/L, contrastive test)
100%: control effect against wheat powdery mildew (%) (wheat powdery mildew; 6.25 mg/L) | control effect against wheat powdery mildew (%) (wheat powdery mildew; 25 mg/L) | control effect against wheat powdery mildew (%) (wheat powdery mildew; 100 mg/L) | control effect against wheat powdery mildew (%) (wheat powdery mildew; 400 mg/L) | protectant activity against wheat powdery mildew in vivo (wheat powdery mildew; 6.25 ppm) | protectant activity against wheat powdery mildew in vivo (wheat powdery mildew; 25 ppm) | protectant activity against wheat powdery mildew in vivo (wheat powdery mildew; 100 ppm) | protectant activity against wheat powdery mildew in vivo (wheat powdery mildew; 400 ppm) | control (test results against green peach aphid) [1, 3] | control (test results against green peach aphid) [1, 4] | control effect against corn rust (%) (corn rust; 6.25 mg/L) | control effect against corn rust (%) (corn rust; 25 mg/L) | control effect against corn rust (%) (corn rust; 100 mg/L) | control effect against corn rust (%) (corn rust; 400 mg/L) | protectant activity against corn rust in vivo (corn rust; 6.25 ppm) | protectant activity against corn rust in vivo (corn rust; 25 ppm) | protectant activity against corn rust in vivo (corn rust; 100 ppm) | protectant activity against corn rust in vivo (corn rust; 400 ppm) | Insecticidal activity against carmine spider mite (% ) (carmine spider mite; 100 mg/L, contrastive test) | Insecticidal activity against carmine spider mite (% ) (carmine spider mite; 600 mg/L, contrastive test) | control against carmine spider mite (carmine spider mite; 100 ppm) | control against carmine spider mite (carmine spider mite; 600 ppm) | protectant activity against cucumber downy mildew in vivo (cucumber downy mildew; 400 ppm)
50%: control effect against wheat powdery mildew (%) (wheat powdery mildew; 0.4 mg/L)
15%: control effect against corn rust (%) (corn rust; 0.4 mg/L)
75%: control effect against corn rust (%) (corn rust; 1.6 mg/L)

Cc1ncnc(NCCc2ccc(Oc3cccc(F)c3)c(Cl)c2)c1Cl [II-559]
100%: control (test results against armyworm) (armyworm; 600 ppm, mortality after 72 h)
